Results: patent US20190282496A1 (Bryn Pharma, LLC, priority 2018, published 2019)

Columns and labels:
[1] = tested on: histamine induced nasal congestion
[2] = dogs; concomitant intranasal administration of phentolamine; Bleske et al.; cited from earlier work

Row | Structure (SMILES) | nasal congestion and flow restriction pressure ([1]; Group 1, 5 and 10 minutes post-histamine exposure) | histamine-induced nasal congestion ([1]; aerosolized 5% histamine, all animals) | histamine induced congestion without epinephrine administration ([1]; pilot study, 60, 80 and 100 minute time points) | epinephrine plasma levels following intranasal administration [2]
1 | NCCc1c[nH]cn1 [Histamine] | progressive increase | induced congestion in all animals to varying degrees | remains elevated at significant levels | –
2 | Cc1ccc(N(CC2=NCCN2)c2cccc(O)c2)cc1 [phentolamine] | – | – | – | enhanced
